US8809341B2, “2,4-pyrimidinediamine compounds and uses as anti-proliferative agents” (Rigel Pharmaceuticals, Inc., priority 2003, dated 2014)

Assays:
H1299 cells = test: in vitro antiproliferation assay, H1299 (lung); format: cell-based
Summary of the method: (§1)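 Standard in vitro antiproliferation assays on tumour cell lines, including A549 and H1299 (both lung); IC50 values determined.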

A549 cells = test: in vitro antiproliferation assay, A549 (lung); format: cell-based
Summary of the method: as §1

[1] = H1299 (lung) cells, antiproliferation
[2] = A549 (lung) cells, antiproliferation
[3] = IC50 class against H1299 (lung) tumor cells
[4] = IC50 class against A549 (lung) tumor cells
[5] = Homo sapiens, NCI-H1299, IC50 class against H1299 (lung) tumor cells
[6] = Homo sapiens, IC50 class against A549 (lung) tumor cells

Compound	IC50 (H1299 cells; H1299 (lung) cells)	IC50 (A549 cells; A549 (lung) cells)	further results
NC(=O)c1ccc(Nc2nc(Nc3cccc(O)c3)ncc2F)cc1 [compound 1026]	–	–	IC50 (H1299 cells; [1]): ≤ 20 µM; IC50 (A549 cells; [2]): > 20 µM
NC(=O)c1ccc(Nc2nc(Nc3cc(Cl)c(O)c(Cl)c3)ncc2F)cc1 [compound 1027]	–	–	IC50 (H1299 cells; [1]): ≤ 20 µM; IC50 (A549 cells; [2]): ≤ 20 µM
COc1ccc(Nc2ncc(F)c(Nc3ccc(C(N)=O)cc3)n2)cc1Cl [compound 1028]	–	–	IC50 (H1299 cells; [1]): ≤ 20 µM; IC50 (A549 cells; [2]): ≤ 20 µM
NC(=O)c1ccc(Nc2ncc(F)c(Nc3ccc(C(N)=O)cc3)n2)cc1 [compound 1029]	–	–	IC50 (H1299 cells; [1]): > 20 µM; IC50 (A549 cells; [2]): > 20 µM
CN(c1ccc(Cl)c(Cl)c1)c1nc(Nc2ccc(C(N)=O)cc2)ncc1F [compound 1030]	–	–	IC50 (H1299 cells; [1]): ≤ 20 µM; IC50 (A549 cells; [2]): ≤ 20 µM
CCN(CC)CCNC(=O)c1ccc(Nc2ncc(F)c(N(C)c3ccc(Cl)c(Cl)c3)n2)cc1 [compound 1031]	–	–	IC50 (H1299 cells; [1]): ≤ 20 µM; IC50 (A549 cells; [2]): ≤ 20 µM
COc1cc(Nc2nc(Nc3ccc(C(N)=O)cc3)ncc2F)ccc1Cl [compound 1032]	–	–	IC50 (H1299 cells; [1]): > 20 µM; IC50 (A549 cells; [2]): > 20 µM
COc1ccc(Nc2nc(Nc3ccc(C(N)=O)c(Cl)c3)ncc2F)cc1Cl [compound 1033]	–	–	IC50 (H1299 cells; [1]): ≤ 20 µM; IC50 (A549 cells; [2]): ≤ 20 µM
COc1cc(Nc2nc(Nc3ccc(C(N)=O)c(Cl)c3)ncc2F)ccc1Cl [compound 1034]	–	–	IC50 (H1299 cells; [1]): ≤ 20 µM; IC50 (A549 cells; [2]): > 20 µM
CCN(CC)CCNC(=O)c1ccc(Nc2ncc(F)c(Nc3ccc(Cl)c(OC)c3)n2)cc1 [compound 1035]	–	–	IC50 (H1299 cells; [1]): ≤ 20 µM; IC50 (A549 cells; [2]): ≤ 20 µM
NC(=O)c1ccc(Nc2ncc(F)c(Nc3ccccc3)n2)cc1 [compound 1036]	–	–	IC50 (H1299 cells; [1]): ≤ 20 µM; IC50 (A549 cells; [2]): ≤ 20 µM
CNc1ncc(F)c(N(C)c2ccc3c(c2)OCCO3)n1 [compound 1038]	–	–	IC50 (H1299 cells; [3]): ≤ 20 µM; IC50 (A549 cells; [4]): ≤ 20 µM
CN(C)c1ncc(F)c(N(C)c2ccc3c(c2)OCCO3)n1 [compound 1039]	–	–	IC50 (H1299 cells; [3]): ≤ 20 µM; IC50 (A549 cells; [4]): ≤ 20 µM
CN(c1ccc2c(c1)OCCO2)c1nc(NCCO)ncc1F [compound 1040]	–	–	IC50 (H1299 cells; [3]): ≤ 20 µM; IC50 (A549 cells; [4]): ≤ 20 µM
CC(C)Nc1ncc(F)c(N(C)c2ccc3c(c2)OCCO3)n1 [compound 1041]	–	–	IC50 (H1299 cells; [3]): ≤ 20 µM; IC50 (A549 cells; [4]): ≤ 20 µM
CN(c1ccc2c(c1)OCCO2)c1nc(N(CCO)CCO)ncc1F [compound 1042]	–	–	IC50 (H1299 cells; [3]): ≤ 20 µM; IC50 (A549 cells; [4]): > 20 µM
C=CCNc1ncc(F)c(N(C)c2ccc3c(c2)OCCO3)n1 [compound 1043]	–	–	IC50 (H1299 cells; [3]): ≤ 20 µM; IC50 (A549 cells; [4]): ≤ 20 µM
CNc1ncc(F)c(Nc2ccc3c(c2)OCCO3)n1 [compound 1044]	–	–	IC50 (H1299 cells; [3]): > 20 µM; IC50 (A549 cells; [4]): > 20 µM
COc1ccc(Nc2ncc(F)c(Nc3ccc4c(c3)OCCO4)n2)c(C)c1 [compound 1046]	–	–	IC50 (H1299 cells; [3]): ≤ 20 µM; IC50 (A549 cells; [4]): ≤ 20 µM
COc1ccc(C)c(Nc2ncc(F)c(Nc3ccc4c(c3)OCCO4)n2)c1 [compound 1047]	–	–	IC50 (H1299 cells; [3]): ≤ 20 µM; IC50 (A549 cells; [4]): ≤ 20 µM
Cc1ccc(F)c(Nc2ncc(F)c(Nc3ccc4c(c3)OCCO4)n2)c1 [compound 1048]	–	–	IC50 (H1299 cells; [3]): ≤ 20 µM; IC50 (A549 cells; [4]): ≤ 20 µM
COc1cc(Nc2ncc(F)c(Nc3ccc4c(c3)OCCO4)n2)c(OC)cc1Cl [compound 1049]	–	–	IC50 (H1299 cells; [3]): ≤ 20 µM; IC50 (A549 cells; [4]): ≤ 20 µM

Compound	IC50 (H1299 cells; H1299 (lung) cells)	IC50 (A549 cells; A549 (lung) cells)	further results
COc1c(C)cc(Nc2ncc(F)c(Nc3cccc(Nc4ncc[nH]4)c3)n2)cc1C [compound 1050]	–	–	IC50 (H1299 cells; [5]): ≤ 20 µM; IC50 (A549 cells; [6]): ≤ 20 µM
COc1ccc(Nc2ncc(F)c(Nc3cccc(Nc4ncc[nH]4)c3)n2)cc1F [compound 1051]	–	–	IC50 (H1299 cells; [5]): ≤ 20 µM; IC50 (A549 cells; [6]): ≤ 20 µM
Cc1cc(C)cc(Nc2ncc(F)c(Nc3cccc(Nc4ncc[nH]4)c3)n2)c1 [compound 1052]	–	–	IC50 (H1299 cells; [5]): ≤ 20 µM; IC50 (A549 cells; [6]): ≤ 20 µM
COc1cc(Nc2ncc(F)c(Nc3cccc(Nc4ncc[nH]4)c3)n2)cc(OC)c1 [compound 1053]	–	–	IC50 (H1299 cells; [5]): ≤ 20 µM; IC50 (A549 cells; [6]): ≤ 20 µM
Fc1cnc(Nc2cccc(N3CCOCC3)c2)nc1Nc1cccc(Nc2ncc[nH]2)c1 [compound 1054]	–	–	IC50 (H1299 cells; [5]): ≤ 20 µM; IC50 (A549 cells; [6]): ≤ 20 µM
CCOC(=O)N1CCN(c2cccc(Nc3ncc(F)c(Nc4cccc(Nc5ncc[nH]5)c4)n3)c2)CC1 [compound 1055]	–	–	IC50 (H1299 cells; [5]): > 20 µM; IC50 (A549 cells; [6]): > 20 µM
CN1CCN(c2ccc(Nc3ncc(F)c(Nc4cccc(Nc5ncc[nH]5)c4)n3)cc2)CC1 [compound 1056]	–	–	IC50 (H1299 cells; [5]): > 20 µM; IC50 (A549 cells; [6]): > 20 µM
COC(=O)N1CCN(c2ccc(Nc3ncc(F)c(Nc4cccc(Nc5ncc[nH]5)c4)n3)cc2)CC1 [compound 1057]	–	–	IC50 (H1299 cells; [5]): > 20 µM; IC50 (A549 cells; [6]): > 20 µM
CC(=O)N1CCN(c2ccc(Nc3ncc(F)c(Nc4cccc(Nc5ncc[nH]5)c4)n3)cc2)CC1 [compound 1058]	–	–	IC50 (H1299 cells; [5]): > 20 µM; IC50 (A549 cells; [6]): > 20 µM
CC(=O)N1CCN(c2cccc(Nc3ncc(F)c(Nc4cccc(Nc5ncc[nH]5)c4)n3)c2)CC1 [compound 1059]	–	–	IC50 (H1299 cells; [5]): > 20 µM; IC50 (A549 cells; [6]): > 20 µM
COc1cccc(Nc2ncc(F)c(Nc3ccc4c(c3)NC(=O)CO4)n2)c1C [compound 1062]	≤ 20 µM	≤ 20 µM	–
Cc1c(O)cccc1Nc1ncc(F)c(Nc2ccc3c(c2)NC(=O)CO3)n1 [compound 1063]	≤ 20 µM	≤ 20 µM	–
Cc1c(O)cccc1Nc1ncc(F)c(Nc2ccc3c(c2)NC(=O)C(C)(C)O3)n1 [compound 1064]	≤ 20 µM	≤ 20 µM	–
COc1cccc(Nc2ncc(F)c(Nc3ccc4c(c3)NC(=O)C(C)(C)O4)n2)c1C [compound 1065]	> 20 µM	≤ 20 µM	–
CCCn1ncc2cc(Nc3ncc(F)c(Nc4ccc(OC)c(Cl)c4)n3)ccc21 [compound 1074]	≤ 20 µM	≤ 20 µM	–
CCCn1ncc2cc(Nc3ncc(F)c(Nc4ccc(Cl)c(Cl)c4)n3)ccc21 [compound 1075]	> 20 µM	> 20 µM	–
CCCn1ncc2cc(Nc3ncc(F)c(Nc4ccc5c(c4)NC(=O)C(C)(C)O5)n3)ccc21 [compound 1076]	≤ 20 µM	≤ 20 µM	–
CCCn1ncc2ccc(Nc3ncc(F)c(Nc4ccc(F)c(OC)c4)n3)cc21 [compound 1077]	≤ 20 µM	≤ 20 µM	–
CCCn1ncc2ccc(Nc3ncc(F)c(Nc4ccc5c(c4)NC(=O)C(C)(C)O5)n3)cc21 [compound 1080]	≤ 20 µM	≤ 20 µM	–
CCCCn1ncc2cc(Nc3ncc(F)c(Nc4ccc(OC)c(Cl)c4)n3)ccc21 [compound 1082]	> 20 µM	≤ 20 µM	–
CCCCn1ncc2cc(Nc3ncc(F)c(Nc4ccc(Cl)c(Cl)c4)n3)ccc21 [compound 1083]	≤ 20 µM	≤ 20 µM	–
CCCCn1ncc2cc(Nc3ncc(F)c(Nc4ccc5c(c4)NC(=O)C(C)(C)O5)n3)ccc21 [compound 1084]	≤ 20 µM	≤ 20 µM	–

Compound	IC50 (H1299 cells; H1299 (lung) cells)	IC50 (A549 cells; A549 (lung) cells)	further results
CCCCn1ncc2cc(Nc3ncc(F)c(Nc4ccc(F)c(OC)c4)n3)ccc21 [compound 1085]	≤ 20 µM	≤ 20 µM	–
CCCCn1ncc2ccc(Nc3ncc(F)c(Nc4ccc(OC)c(Cl)c4)n3)cc21 [compound 1086]	≤ 20 µM	≤ 20 µM	–
CCCCn1ncc2ccc(Nc3ncc(F)c(Nc4ccc(Cl)c(Cl)c4)n3)cc21 [compound 1087]	≤ 20 µM	≤ 20 µM	–
CCCCn1ncc2ccc(Nc3ncc(F)c(Nc4ccc5c(c4)NC(=O)C(C)(C)O5)n3)cc21 [compound 1088]	≤ 20 µM	≤ 20 µM	–
CCCCn1ncc2ccc(Nc3ncc(F)c(Nc4ccc(F)c(OC)c4)n3)cc21 [compound 1089]	≤ 20 µM	≤ 20 µM	–
COc1ccc(Nc2nc(Nc3ccc4c(cnn4CC4CCCCC4)c3)ncc2F)cc1Cl [compound 1090]	≤ 20 µM	≤ 20 µM	–
Fc1cnc(Nc2ccc3c(cnn3CC3CCCCC3)c2)nc1Nc1ccc(Cl)c(Cl)c1 [compound 1091]	> 20 µM	> 20 µM	–
CC1(C)Oc2ccc(Nc3nc(Nc4ccc5c(cnn5C(C)(C)CC5CCCCC5)c4)ncc3F)cc2NC1=O [compound 1092]	≤ 20 µM	≤ 20 µM	–
COc1cc(Nc2nc(Nc3ccc4c(cnn4C(C)(C)CC4CCCCC4)c3)ncc2F)ccc1F [compound 1093]	≤ 20 µM	≤ 20 µM	–
COc1ccc(Nc2nc(Nc3ccc4cnn(C(C)(C)CC5CCCCC5)c4c3)ncc2F)cc1Cl [compound 1094]	≤ 20 µM	≤ 20 µM	–
CC(C)(CC1CCCCC1)n1ncc2ccc(Nc3ncc(F)c(Nc4ccc(Cl)c(Cl)c4)n3)cc21 [compound 1095]	≤ 20 µM	≤ 20 µM	–
CC1(C)Oc2ccc(Nc3nc(Nc4ccc5cnn(C(C)(C)CC6CCCCC6)c5c4)ncc3F)cc2NC1=O [compound 1096]	≤ 20 µM	≤ 20 µM	–
COc1cc(Nc2nc(Nc3ccc4cnn(C(C)(C)CC5CCCCC5)c4c3)ncc2F)ccc1F [compound 1097]	≤ 20 µM	> 20 µM	–
COc1ccc(Nc2nc(Nc3ccc4c(cnn4C(C)(C)CC4CCC4)c3)ncc2F)cc1Cl [compound 1098]	≤ 20 µM	> 20 µM	–
CC(C)(CC1CCC1)n1ncc2cc(Nc3ncc(F)c(Nc4ccc(Cl)c(Cl)c4)n3)ccc21 [compound 1099]	≤ 20 µM	≤ 20 µM	–
CC1(C)Oc2ccc(Nc3nc(Nc4ccc5c(cnn5C(C)(C)CC5CCC5)c4)ncc3F)cc2NC1=O [compound 1100]	≤ 20 µM	≤ 20 µM	–
COc1cc(Nc2nc(Nc3ccc4c(cnn4C(C)(C)CC4CCC4)c3)ncc2F)ccc1F [compound 1101]	≤ 20 µM	≤ 20 µM	–
COc1ccc(Nc2nc(Nc3ccc4cnn(C(C)(C)CC5CCC5)c4c3)ncc2F)cc1Cl [compound 1102]	≤ 20 µM	≤ 20 µM	–
CC1(C)Oc2ccc(Nc3nc(Nc4ccc5cnn(C(C)(C)CC6CCC6)c5c4)ncc3F)cc2NC1=O [compound 1104]	≤ 20 µM	≤ 20 µM	–
COc1cc(Nc2nc(Nc3ccc4cnn(C(C)(C)CC5CCC5)c4c3)ncc2F)ccc1F [compound 1105]	≤ 20 µM	≤ 20 µM	–
COc1ccc(Nc2nc(Nc3ccc4c(cnn4C(C)(C)CC4CC4)c3)ncc2F)cc1Cl [compound 1106]	≤ 20 µM	≤ 20 µM	–
CC(C)(CC1CC1)n1ncc2cc(Nc3ncc(F)c(Nc4ccc(Cl)c(Cl)c4)n3)ccc21 [compound 1107]	> 20 µM	> 20 µM	–
